system: not listed separately; assay: Acute toxicity, oral; conditions: mouse, in vivo, mice, p.o.

Row | Compound | LD50
1 | CC1=C(C(=O)Nc2ccc(Cl)c(Cl)c2)SC2=NCCN21.Cl [Compound 15, 2-(3,4-dichlorophenylcarbamoyl)-3-methyl-5,6-dihydroimidazo [2,1-b] thiazole hydrochloride] | > 4000 mg/kg

system: bovine serum albumin; assay: not given; conditions: known agents, stated "in general"; cited from earlier work

Row | Compound | effect on heat denaturation of bovine serum albumin
2 | CC(C)(S)[C@@H](N)C(=O)O [D-penicillamine] | do not inhibit the heat denaturation of bovine serum albumin but rather stimulate the protein heat denaturation
3 | Cn1cnc([N+](=O)[O-])c1Sc1ncnc2nc[nH]c12 [azathioprine] | do not inhibit the heat denaturation of bovine serum albumin but rather stimulate the protein heat denaturation
4 | c1ccc([C@H]2CN3CCSC3=N2)cc1 [levamisol] | do not inhibit the heat denaturation of bovine serum albumin but rather stimulate the protein heat denaturation
5 | gold sodium thiomalate | do not inhibit the heat denaturation of bovine serum albumin but rather stimulate the protein heat denaturation

system: not listed separately; assay: Anti-carrageenin edema action (oral, hind foot edema); type: in vivo, Wister rats; conditions: Rattus norvegicus, po, 3 h, minimum dose with significant inhibition of edema 3 hours after carrageenin injection; p.o. one hour before carrageenin
Protocol: Fasting Wister rats, male, 5-6 weeks in age, five in one group, were injected subcutaneously in the sole of the caudal foot with 1% lambda carrageenin (0.05 ml), and the increase in the volume of the foot was measured at alliquot times. Then the compound of the invention was suspended in 0.3% CMC and administered orally one hour before carrageenin injection. 0.3% CMC alone was administered as a control.

Row | Compound | minimal effective dose
6 | CC1=C(C(=O)Nc2ccccc2)SC2=NCCN21 [Compound 1, 2-phenylcarbamoyl-3-methyl-5,6-dihydro-imidazo [2,1-b] thiazole] | 100 mg/kg
7 | CC1=C(C(=O)Nc2ccccc2)SC2=NCCN21.Cl [Compound 2, 2-phenylcarbamoyl-3-methyl-5,6-dihydro-imidazo [2,1-b] thiazole hydrochloride] | 50 mg/kg
8 | CC1=C(C(=O)Nc2ccccc2Cl)SC2=NCCN21.Cl [Compound 4, 2-(2-chlorophenylcarbamoyl)-3-methyl-5,6-dihydroimidazo [2,1-b] thiazole hydrochloride] | < 25 mg/kg
9 | CC1=C(C(=O)Nc2ccc(Cl)cc2)SC2=NCCN21 [Compound 5] | 50 mg/kg
10 | CC1=C(C(=O)Nc2cc(Cl)ccc2Cl)SC2=NCCN21 [Compound 7, 2-(2,5-dichlorophenylcarbamoyl)-3-methyl-5,6-dihydroimidazo [2,1-b] thiazole] | 100 mg/kg
11 | CC1=C(C(=O)Nc2ccc(C)cc2Cl)SC2=NCCN21 [Compound 10] | 50 mg/kg
12 | CCc1ccccc1NC(=O)C1=C(C)N2CCN=C2S1 [Compound 11] | 50 mg/kg
13 | CC1=C(C(=O)Nc2ccc(Cl)cc2C)SC2=NCCN21 [Compound 13] | 50 mg/kg
14 | CCOc1ccc(NC(=O)C2=C(C)N3CCN=C3S2)cc1 [Compound 14] | 50 mg/kg
15 | CC1=C(C(=O)Nc2ccc(Cl)c(Cl)c2)SC2=NCCN21.Cl [Compound 15, 2-(3,4-dichlorophenylcarbamoyl)-3-methyl-5,6-dihydroimidazo [2,1-b] thiazole hydrochloride] | < 25 mg/kg
16 | CC1=C(C(=O)Nc2ccc(Br)cc2)SC2=NCCN21 [Compound 16] | 50 mg/kg
17 | CC1=C(C(=O)Nc2c(Cl)cc(Cl)cc2Cl)SC2=NCCN21 [Compound 19] | 100 mg/kg
18 | COc1cc(OC)c(NC(=O)C2=C(C)N3CCN=C3S2)cc1Cl [Compound 21] | 100 mg/kg
19 | COc1ccc(Cl)cc1NC(=O)C1=C(C)N2CCN=C2S1 [Compound 22] | 100 mg/kg
20 | CC1=C(C(=O)Nc2ccc(Cl)c(Cl)c2)SC2=NCCN21 [Compound 30] | < 25 mg/kg
21 | CC1=C(C(=O)Nc2ccc(Cl)cc2Cl)SC2=NCCN21 [Compound 32] | 50 mg/kg

same assay, conditions: minimum dose with significant inhibition of edema 3 hours after carrageenin injection; p.o. one hour before carrageenin

Row | Compound | Minimum effective dose
22 | CC1=C(C(=O)Nc2ccc(Cl)cc2)SC2=NCCN21 [Compound 6] | < 25 mg/kg, p.o.

system: not listed separately; assay: Analgesic action, acetic acid stretching method, oral; type: in vivo; conditions: administered orally in mice

Row | Compound | analgesic action, at a dose of
23 | CC1=C(C(=O)Nc2ccc(Cl)c(Cl)c2)SC2=NCCN21.Cl [Compound 15, 2-(3,4-dichlorophenylcarbamoyl)-3-methyl-5,6-dihydroimidazo [2,1-b] thiazole hydrochloride] | 25 mg/kg

system: not listed separately; assay: Adjuvant arthritis (chronic inflammation), oral; type: in vivo; conditions: administered orally, rats

Row | Compound | inhibited adjuvant arthritis, at a dose of
24 | CC1=C(C(=O)Nc2ccc(Cl)c(Cl)c2)SC2=NCCN21.Cl [Compound 15, 2-(3,4-dichlorophenylcarbamoyl)-3-methyl-5,6-dihydroimidazo [2,1-b] thiazole hydrochloride] | 1 to 10 mg/kg

— patent publication US4629793A, “2,3-di-substituted-5,6-dihydroimidazo [2,1-b] thiazole, its salts, production thereof and anti-inflammatory agent containing the same” (Toyo Jozo Kabushiki Kaisha, priority 1981, dated 1986)
